Results as given in US10525106B2, “Angiopoietin-based interventions for treating cerebral malaria” (Regeneron Pharmaceuticals, Inc., priority 2013, dated 2020).

How the values were obtained:
[1] = test system: Plasmodium berghei ANKA (PbA)-induced experimental cerebral malaria; assay: Survival of mice infected with PbA (Kaplan Meier, log rank test); type: in vivo; settings: C57Bl/6 mice, 10 mg/kg artesunate Day 5 sc, alone (Example 4)
Description: (§1) Cryopreserved Plasmodium berghei ANKA (PbA; MR4, Manassas, Va.) was passaged through naïve C57Bl/6 mice. For the experiment, infection was initiated in C57Bl/6 and BALB/c mice by intraperitoneal (ip) injection of 1×10^6 freshly-isolated parasitized erythrocytes (PE) obtained from donor passage mice. Parasitemia was monitored by thin-blood smear stained with modified Geimsa stain (Protocol Hema3 Stain Set, Sigma, Oakville, ON) by counting at least 1500 erythrocytes. The infected mice were monitored for survival, neurological impairment, vascular leakage, parasite burden, and levels of angiogenic factors and markers of endothelial activation.
Post-infection survival of mice was plotted as Kaplan Meier curves using a log rank test for comparison. Quantitative assessment of ECM-associated neurological impairment (impaired coordination and motor performance) was performed daily using the 10 parameter Rapid Murine Coma and Behavioral Score (RMCBS), as previously described by Carroll R W, et al. 2010 in PLoS ONE 5: e13124. […] Total scores for each mouse were calculated and provided as a percentage of the total possible score. […]
Statistical analysis was performed using GraphPad Prism version 4.00 (San Diego, Calif.). Post-infection survival of mice was plotted as Kaplan Meier curves and assessed using log-rank test. […]

[2] = test system: Plasmodium berghei ANKA (PbA); assay: Parasitemia by thin-blood smear; type: in vivo; settings: C57Bl/6 mice, 10 mg/kg artesunate Day 5 sc (Example 4)
Description: as §1

`C[C@H]1[C@H](OC(=O)CCC(=O)O)O[C@@H]2O[C@@]3(C)CC[C@H]4[C@H](C)CC[C@@H]1[C@@]24OO3` [artesunate, reference compound] was tested, and the “survival by Day 8 post infection” value [1] was “less than 60%”, the “treated mice that died of ECM” value [1] was 41.7% and the “parasitemia (parasite burden diminished to pre-ECM levels)” value [2] was under 2%.
